In ChEMBL document CHEMBL4011585, “Identification of dibenzyl imidazolidine and triazole acetamide derivatives through virtual screening targeting amyloid beta aggregation and neurotoxicity in PC12 cells” (Eur J Med Chem, 2017):
Calls of active or inactive are those of the source. The calls are words filed in the database; no cut-off is given here.

Tests used:
[1] = molecular target: Amyloid-beta precursor protein (Homo sapiens) (UniProt P05067); test: Inhibition of recombinant human amyloid beta (1 to 42) aggregation at 100 uM measured every 10 mins for 48 hrs by thioflavin T fluorescence assay
Amyloid-beta precursor protein (Homo sapiens), sequence (P05067 whole entry): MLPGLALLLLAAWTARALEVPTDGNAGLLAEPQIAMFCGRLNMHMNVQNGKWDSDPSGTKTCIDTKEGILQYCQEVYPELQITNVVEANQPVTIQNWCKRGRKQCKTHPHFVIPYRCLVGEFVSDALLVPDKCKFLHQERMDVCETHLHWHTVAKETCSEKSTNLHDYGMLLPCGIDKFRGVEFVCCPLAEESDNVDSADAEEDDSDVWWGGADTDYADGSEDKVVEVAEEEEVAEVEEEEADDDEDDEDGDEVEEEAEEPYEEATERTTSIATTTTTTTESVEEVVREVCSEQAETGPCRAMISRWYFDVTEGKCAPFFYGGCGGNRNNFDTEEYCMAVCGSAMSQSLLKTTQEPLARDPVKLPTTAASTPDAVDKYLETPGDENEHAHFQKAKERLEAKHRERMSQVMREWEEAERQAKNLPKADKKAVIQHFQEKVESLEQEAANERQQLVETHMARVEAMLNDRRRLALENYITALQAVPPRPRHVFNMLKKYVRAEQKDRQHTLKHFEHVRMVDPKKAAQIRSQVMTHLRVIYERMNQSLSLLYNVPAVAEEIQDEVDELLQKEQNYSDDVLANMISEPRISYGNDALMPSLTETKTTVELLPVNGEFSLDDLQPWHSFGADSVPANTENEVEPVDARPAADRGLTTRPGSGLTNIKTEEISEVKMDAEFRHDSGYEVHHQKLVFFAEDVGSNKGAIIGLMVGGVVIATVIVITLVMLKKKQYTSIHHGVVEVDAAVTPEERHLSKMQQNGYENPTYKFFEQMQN

[2] = molecular target: Amyloid-beta precursor protein (Homo sapiens) (UniProt P05067); test: Induction of morphological changes in recombinant human amyloid beta (1 to 42) fibrils assessed as thinner fibril at 100 uM measured after 48 hrs by transmission electron microscopic method
[3] = molecular target: Amyloid-beta precursor protein (Homo sapiens) (UniProt P05067); test: Induction of morphological changes in recombinant human amyloid beta (1 to 42) fibrils assessed as shorter fibril at 100 uM measured after 48 hrs by transmission electron microscopic method
[4] = molecular target: Amyloid-beta precursor protein (Homo sapiens) (UniProt P05067); test: Induction of morphological changes in recombinant human amyloid beta (1 to 42) assessed as loosely attached fibrils at 100 uM measured after 48 hrs by transmission electron microscopic method
[5] = molecular target: Amyloid-beta precursor protein (Homo sapiens) (UniProt P05067); test: Induction of morphological changes in recombinant human amyloid beta (1 to 42) assessed as smoother fibrils at 100 uM measured after 48 hrs by transmission electron microscopic method
[6] = molecular target: Amyloid-beta precursor protein (Homo sapiens) (UniProt P05067); test: Induction of morphological changes in recombinant human amyloid beta (1 to 42) assessed as less dense fibril at 100 uM measured after 48 hrs by transmission electron microscopic method
PC-12 [7] = test: Cytotoxicity against rat PC12 cells assessed as reduction in cell viability up to 100 uM after 48 hrs by MTT assay; format: cell-based; conditions: pc-12, 48 h
PC-12 [8] = test: Neuroprotective activity against amyloid beta (1 to 42)-induced cell death in rat PC12 cells assessed as cell viability at 100 uM measured after 48 hrs by MTS assay relative to control; format: functional
[9] = molecular target: Amyloid-beta precursor protein (Homo sapiens) (UniProt P05067); test: Induction of morphological changes in recombinant human amyloid beta (1 to 42) assessed as appearance of uneven fibrils at 100 uM measured after 48 hrs by transmission electron microscopic method
[10] = molecular target: Amyloid-beta precursor protein (Homo sapiens) (UniProt P05067); test: Induction of morphological changes in recombinant human amyloid beta (1 to 42) assessed as appearance of small mesh-like aggregates at 100 uM measured after 48 hrs by transmission electron microscopic method
[11] = molecular target: Amyloid-beta precursor protein (Homo sapiens) (UniProt P05067); test: Induction of morphological changes in recombinant human amyloid beta (1 to 42) assessed as appearance of punctate at 100 uM measured after 48 hrs by transmission electron microscopic method
PC-12 [12] = test: Cytotoxicity against rat PC12 cells assessed as reduction in cell viability at 100 uM after 48 hrs by MTT assay relative to control; format: cell-based; conditions: pc-12, 48 h
PC-12 [13] = test: Cytotoxicity against rat PC12 cells assessed as reduction in cell viability at 10 uM after 48 hrs by MTT assay relative to control; format: cell-based; conditions: pc-12, 48 h
PC-12 [14] = test: Cytotoxicity against rat PC12 cells assessed as reduction in cell viability after 48 hrs by MTT assay; format: cell-based; conditions: pc-12, 48 h

## c1ccc(COc2cccc(C3N(Cc4ccccc4)CCN3Cc3ccccc3)c2)cc1
[1]
  inhibition: inactive
[2]
  Activity: Active
[3]
  Activity: Active
[4]
  Activity: Active
[5]
  Activity: Active
[6]
  Activity: Active
PC-12 [7]
  Activity: Non-Toxic
PC-12 [8]
  Activity: Active

## Cc1ccc(NC(=O)CSc2nnc(-c3ccc(N)cc3)n2C)cc1
[1]
  inhibition: Active
[2]
  Activity: Active
[9]
  Activity: Active
[10]
  Activity: Active
[11]
  Activity: Active
[6]
  Activity: Active
PC-12 [12]
  Activity: 60%

## Cn1c(SCC(=O)Nc2ccccc2)nnc1-c1ccc(N)cc1
[1]
  inhibition: Active
[2]
  Activity: Active
[9]
  Activity: Active
[10]
  Activity: Active
[11]
  Activity: Active
[6]
  Activity: Active
PC-12 [12]
  Activity: 20 to 25%
PC-12 [8]; PC-12, 48 h, read-out: Activity
  viability at 100 µM: 73 to 78%

## COc1cc(C2N(Cc3ccccc3)CCN2Cc2ccccc2)ccc1OCc1ccccc1
[1]
  inhibition: Active
[2]
  Activity: Active
[3]
  Activity: Active
[4]
  Activity: Active
[9]
  Activity: Active
[6]
  Activity: Active
PC-12 [7]
  Activity: Non-Toxic
PC-12 [8]
  Activity: Active

## Cc1cccc(CNC(=O)[C@@H](C)C2CCN(C(=O)c3ccc4oc(-c5ccccc5)nc4c3)CC2)c1
[1]
  inhibition: inactive
[6]
  Activity: inactive
PC-12 [12]
  Activity: 87%
PC-12 [13]
  Activity: 35%
PC-12 [14]
  Activity: Dose-dependent effect
